Test results reported in patent US9498465B2, “Topical compositions in the form of a gel containing a particular solubilized retinoid” (GALDERMA RESEARCH & DEVELOPMENT, priority 2012, dated 2016).

Experiments:
Format in all cases: physicochemical
[1] = Maximum solubility in hydrophilic excipients, determined by HPLC
Experimental: In order to produce an aqueous-glycolic gel containing an amount of ethanol of less than 30%, in which compound A is solubilized, pre-formulation studies were carried out in order to reveal the excipients enabling good solubilization and also good stability of the active agent. • (1) List of the hydrophilic excipients or mixture of hydrophilic excipients in which maximum solubility was determined by HPLC: […]

[2] = Stability of compound A in its principal solvents and cosolvents, determined by HPLC
[3] = Tests introducing ST-cyclomethicone 5NF: recrystallization of compound A
Experimental: In order to obtain an acceptable feel for acne (non-greasy, non-tacky) while at the same time keeping good solubility of compound A in the formula, tests introducing ST-cyclomethicone 5 were carried out, in the knowledge that ST-cyclomethicone 5NF is a nonsolvent of compound A and that this addition may therefore cause recrystallization of compound A: […]

Maximum solubility as % ([1]; in Arlasolve DMI (Dimethyl Isosorbide)): 0.4%
Maximum solubility as % ([1]; in Benzyl Alcohol): 2.3880%
Maximum solubility as % ([1]; in Dipropylene Glycol Care (Dipropylene Glycol)): 0.4%
Maximum solubility as % ([1]; in Ethanol 95-96%): 0.92%
Maximum solubility as % ([1]; in Glycerine (Glycerin)): 0.002%
Maximum solubility as % ([1]; in Hexylene Glycol): 0.4%
Maximum solubility as % ([1]; in Hydrolite 5P (Pentylene glycol)): 0.482%
Maximum solubility as % ([1]; in PEG 400 (Peg-8)): 1.52%
Maximum solubility as % ([1]; in Pharmasolve (Methyl Pyrolidone)): 4.84%
Maximum solubility as % ([1]; in Phenoxetol (Phenoxyethanol)): 1.957%
Maximum solubility as % ([1]; in Propylene Glycol): 0.111%
Maximum solubility as % ([1]; in Transcutol (Ethoxy diglycol)): 4.17%
Solubility (in words) ([1]; in glycerine): virtually insoluble
Stability results ([2]; 0.001% in Hexylene Glycol): Unstable
Stability results ([2]; 0.005% in Ethanol 95-96%): Stable
Stability results ([2]; 0.005% in Ethanol 95-96%, listed as compound A): stable
Stability results ([2]; 0.01% in Benzyl Alcohol): Unstable
Stability results ([2]; 0.03% in Arlasolve DMI (Dimethyl Isosorbide)): Unstable
Stability results ([2]; 0.03% in Hydrolite 5P (Pentylene glycol)): Unstable
Stability results ([2]; 0.03% in Pharmasolve (Methyl Pyrolidone)): Unstable
Stability results ([2]; 0.03% in Transcutol (Ethoxy diglycol)): Unstable
Stability results ([2]; 0.05% in Phenoxetol (Phenoxyethanol)): Stable
Stability results ([2]; 0.05% in Phenoxetol (Phenoxyethanol), listed as compound A): stable
Stability results ([2]; 0.05% in Propylene Glycol, listed as COMPOUND A): Stable
Stability results ([2]; 0.05% in Propylene Glycol, listed as compound A): stable
Stability results ([2]; 0.3% in Dipropylene Glycol Care (Dipropylene Glycol), listed as COMPOUND A): Stable
Stability results ([2]; 0.3% in Dipropylene Glycol Care (Dipropylene Glycol), listed as compound A): stable
Stability results ([2]; 0.3% in PEG 400 (Poly Ethylene Glycol)): Unstable
Recrystallization of COMPOUND A ([3]; formula with ST-Cyclomethicone 5NF 0%): No
Recrystallization of COMPOUND A ([3]; formula with ST-Cyclomethicone 5NF 2%): No
Recrystallization of COMPOUND A ([3]; formula with ST-Cyclomethicone 5NF 5%): Re-
Solubility (in words) ([3]; in ST-cyclomethicone 5NF): nonsolvent
SMILES: CC(C)(C)c1cc(-c2cc(-c3ccc(C(=O)O)cc3)ccc2OCCO)ccc1N1CCCC1 [Compound A, 3″-tert-butyl-4′-(2-hydroxyethoxy)-4″-pyrrolidin-1-yl[1,1′;3′,1″]terphenyl-4-carboxylic acid]
